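Exposure lasted 48 hours, with cells grown in 96-well plates and compounds tested at five concentrations. GI50 is the concentration that inhibits growth by half.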 The source made the active and inactive calls. Cut-off read from the data, not from the text of the source: active = GI50 up to about 1.1 µM and inactive = higher.
Key:
Test in all cases: inhibition of tumour cell growth, NCI panel, 48 h
SK-MEL-28 = system: SK-MEL-28
DU-145 = system: DU-145
Hs-578T = system: Hs-578T
MCF7 = system: MCF7
MDA-MB-435 = system: MDA-MB-435
NCI/ADR-RES = system: NCI/ADR-RES
PC-3 = system: PC-3
T47D = system: T47D

Measured: GI50

Cn1nc2ccc3nccc(NCCNCCCl)c3c2n1
inactive: SK-MEL-28 > 100 µM

CN(Cc1cnc2c(N)nc(N)nc2n1)c1ccc(Cl)cc1
inactive: DU-145 > 100 µM | Hs-578T 33.9 µM | MCF7 95.5 µM | MDA-MB-435 > 100 µM | NCI/ADR-RES 16.2 µM | PC-3 65.5 µM | T47D 52.5 µM

Reference: ChEMBL document CHEMBL1201862, “PubChem BioAssay data set” (2004)
